Measurements from patent US8460635B2, “Fenretinide derivatives and uses thereof as therapeutic, diagnostic and imaging agents” (Albert Einstein College of Medicine of Yeshiva University, priority 2008, dated 2013).
Entries after “also recorded” stand apart in the source; their conditions may differ. Like-named read-outs stand apart in the source and are kept apart here.

Tests used:
MON cells = assay: FACS analysis of cell cycle and sub-G1 (apoptosis); type: cell-based; details: 2 days
Description: (§1) FIG. 3A-3B. Induction of cell cycle arrest and apoptosis by halogen derivatives of fenretinide. A. Cell cycle profile determined by FACS analysis of MON cells treated with either 5 or 10 μM concentrations of fenretinide and its derivatives for 2 days. Percentage of cells at various stages of cell cycle (G1, S and G2) is indicated. B. Percentage of MON cells at sub-G1 when exposed for 2 days to fenretinide and its derivatives.
as §1, with “4A-4B.” for “3A-3B.”, “peptidomimetic” for “halogen”
(§2) The effects of fenretinide, halogen substitutes, and peptidomimetic derivatives on cell cycle regulation and apoptosis were tested by using: i) cell survival assay (MTS); ii) FACS analysis; and iii) immunoblot analysis to determine the effect on Cyclin D1.

[1] = Precipitation / solubility in cell culture medium; type: physicochemical
Description: (§3) The rhabdoid cell line (MON) (88) was cultured in RPMI 1640 supplemented with 10% fetal bovine serum, 2 mM L-glutamine, 50 U/ml penicillin, and 50 μg/ml streptomycin at 37° C. with 5% CO2 and 95% humidified air. 4-(Fenretinide) was either obtained from NCI or synthesized in house. Fenretinide or its synthetic derivatives were reconstituted in 100% ethanol as a 10 mM solution and the aliquots were stored frozen at −80° C., protected from light. Working solutions (50 μM or 200 μM) and serial dilutions were prepared by diluting the stock solution with culture medium, such that the concentration of ethanol was <2% in all dilutions.

[2] = tested on: MON (INI1−/−) rhabdoid tumor cells; assay: MTS survival assay of rhabdoid tumor cells; type: cell-based; details: for cytotoxic activity against rhabdoid tumor cells (in words): compared with 4-HPR
Description: FIG. 1A-1D. Effect of 4HPR derivatives with phenyl group substitutions on survival of rhabdoid tumors cells. MON (INI1−/−) cells were treated with serial dilutions of the 4HPR, ATRA and 4HPR derivatives for three days. Survival assay was carried out as described using MTS assay kit. Percentage of cell survival plotted against concentration of drugs (Mean+/−SEM).
FIG. 2. Effect of fenretinide peptidomimitic derivatives on the survival of rhabdoid tumor cells in culture. % survival of MON rhabdoid tumor cells treated with fenretinide derivatives, when compared to the vehicle treated control. The data in all the panels represent the average of triplicate experiments, and the standard error is indicated.
as §3
Aliquots of 8×10^3 MON cells were plated in 96-well microdilution plates. Twenty four hours after seeding, the cells were treated with serial dilutions of each drug. Following incubation for 24 or more hours, each well was stained with 20 μl of MTS [3-(4,5-dimethylthiazol-2-yl)-5-(3-carboxymethoxyphenyl)-2-(4-sulfophenyl)-2H-tetrazolium, inner salt] that was mixed 20:1 V/V in PMS (phenazine methosulphate, CellTiter 96® AQueous Non-Radioactive Cell Proliferation Assay Kit, Promega, Madison, Wis.) added to each of the well in the microtiter plate containing 100 μl of culture medium. After 4 h incubation, the plates were analyzed by an ELISA plate reader (Wallac Victor, 1420 Multilabel Counter, Perkin Elmer) at 490 nm wave-length. Cell plating, drug treatment and survival assay were performed using the epMotion 5070 automated liquid handling robotic system (Eppendorff, Westbury, N.Y.).
Statistical analysis of the data was carried out using GraphPad Prism (San Diego, Calif.). Relative IC50 values were calculated using the nonlinear regression curve fit with sigmoidal dose response (variable slope) function. Relative IC50 is defined as the concentration giving a response exactly half way between the fitted top and bottom of the survival curve when graphed as percent inhibition versus the log of the concentration of compound. The fitting error, or standard error describes the error involved in fitting the curve.

Cyclin D1 = assay: Immunoblot analysis of Cyclin D1 expression; type: cell-based; details: for Repression of Cyclin D1: biomarker expression, Table 3
Description: FIG. 5A-5B. Effect of fenretinide, its derivatives and peptidomimetic compounds on expression of Cyclin D1. Immunoblot analysis to determine the effect of fenretinide and its halogen substitutes (A) and peptidomimetic compounds (B). GAPDH is a loading control.
This assay was performed using a routine laboratory protocol as previously described using chemiluminescence detection method (30). The following antibodies were used: polyclonal α-cyclin D1 Ab-3 (NeoMarkers, Cat# RB-010-P0), monoclonal α-cyclin D1 DCS-6 (NeoMarkers, Cat# MS-210-P1), α-β-Actin (Sigma Cat# A5441) and α-Tubulin-α (Sigma, Cat # T5168).
as §2

[3] = tested on: MON (INI1−/−) rhabdoid tumor cells; assay: MTS survival assay of rhabdoid tumor cells; type: cell-based; details: charcoal adsorbed serum
[4] = 72 h, MON cells, three days, compounds in FIG. 1A-1D, concentration of drug required to kill 50% of cells, read-out: IC50
[5] = MON rhabdoid cells, survival assay, values in text, read-out: IC50
[6] = regular FBS, read-out: IC50 (in regular FBS)
[7] = MON cells, three days, compounds in FIG. 1A-1D, concentration of drug required to kill 50% of cells, read-out: IC50

Compound	% G1 (MON cells; 5 μM, Table 5) [%]	% G2 (MON cells; 5 μM, Table 5) [%]	% S (MON cells; 5 μM, Table 5) [%]	SubG1 (percentage of MON cells at sub-G1) (MON cells; 5 μM, Table 5) [%]	% G1 (MON cells; 10 μM, Table 5) [%]	% G2 (MON cells; 10 μM, Table 5) [%]	% S (MON cells; 10 μM, Table 5) [%]	SubG1 (percentage of MON cells at sub-G1) (MON cells; 10 μM, Table 5) [%]	IC50 [2, 4] [µM]	IC50 [2, 5] [µM]	IC50 [2, 6] [µM]	cytotoxic activity against rhabdoid tumor cells (in words) [2]	also measured
CCC1=C(C)/C(=C/c2ccc(C(=O)Nc3ccc(O)cc3)cc2)CCC1(C)C [Compound 11a, (E)-4-((3-ethyl-2,4,4-trimethylcyclohex-2-enylidene)methyl)-N-(4-hydroxyphenyl)benzamide]													% G1 (MON cells; 5 μM, Table 6): 59.33%; % G2 (MON cells; 5 μM, Table 6): 26.19%; % S (MON cells; 5 μM, Table 6): 14.49%; SubG1 (percentage of MON cells at sub-G1) (MON cells; 5 μM, Table 6): 53.97%; % G1 (MON cells; 10 μM, Table 6): 60.40%; % G2 (MON cells; 10 μM, Table 6): 22.84%; % S (MON cells; 10 μM, Table 6): 16.76%; SubG1 (percentage of MON cells at sub-G1) (MON cells; 10 μM, Table 6): 62.59%; behaviour in cell culture medium (precipitation / insolubility) [1]: precipitated in cell culture medium
CC1=C(/C=C/C(C)=C/C=C/C(C)=C/C(=O)Nc2ccc(O)c(F)c2)C(C)(C)CCC1 [5(h), (2E,4E,6E,8E)-[3,7-Dimethyl-9-(2,6,6-trimethyl-1-cyclohexenyl)-nona-2,4,6,8-tetraenoylamino]-(3-fluoro,4-hydroxy)phenylamide]	87.23	7.10	5.67	38.78	87.22	6.97	5.81	50.79	8	8	8		Repression of Cyclin D1 (Cyclin D1): Yes
CCC1=C(C)/C(=C/c2ccc(C(=O)O)cc2)CCC1(C)C [Compound 8]										> 50			IC50 ([2]; MON cells, nonlinear regression, sigmoidal dose response, read-out: Relative IC50): > 50 µM
COc1ccc(NC(=O)/C=C(C)/C=C/C=C(C)/C=C/C2=C(C)CCCC2(C)C)cc1 [5(f), (2E,4E,6E,8E)-[3,7-Dimethyl-9-(2,6,6-trimethyl-1-cyclohexenyl)-nona-2,4,6,8-tetraenoylamino]-(4-methoxy)phenylamide]													behaviour in cell culture medium (precipitation / insolubility) [1]: insoluble in cell culture medium
(2E,4E,6E,8E)-[3,7-Dimethyl-9-(2,6,6-trimethyl-1-cyclohexenyl)-nona-2,4,6,8-tetraenoylamino]-(4-nitro)phenylamide [5(e)]										> 200			IC50 [2, 7]: > 200 µM
(2E,4E,6E,8E)-[3,7-Dimethyl-9-(2,6,6-trimethyl-1-cyclohexenyl)-nona-2,4,6,8-tetraenoylamino]-(4-bromo)phenylamide [5(c)]													IC50 [2, 7]: 150 µM
(2E,4E,6E,8E)-[3,7-Dimethyl-9-(2,6,6-trimethyl-1-cyclohexenyl)-nona-2,4,6,8-tetraenoylamino]-(4-ethylalcohol)phenylamide [5(m)]												lack of activity	IC50 [2, 7]: > 50 µM
CC1=C(/C=C/C(C)=C/C=C/C(C)=C/C(=O)Nc2ccc(Cl)cc2)C(C)(C)CCC1 [5(b), (2E,4E,6E,8E)-[3,7-Dimethyl-9-(2,6,6-trimethyl-1-cyclohexenyl)-nona-2,4,6,8-tetraenoylamino]-(4-chloro)phenylamide]									> 200	≥ 150			
CC1=C(/C=C/C(C)=C/C=C/C(C)=C/C(=O)Nc2ccc(F)cc2)C(C)(C)CCC1 [5(a)]	78.56	14.61	6.84	8.30	65.50	27.25	7.25	9.44	150	≥ 150	> 50		IC50 [3]: > 15 µM
CC1=C(/C=C/C(C)=C/C=C/C(C)=C/C(=O)O)C(C)(C)CCC1 [ATRA, All-trans retinoic acid, reference compound]	82.64	11.04	6.32	8.22	82.08	11.21	6.71	9.27	100	100	> 50	did not have appreciable cytotoxic activity; also recorded: did not exhibit activities against rhabdoid tumor cells	% G1 (MON cells; 5 μM, Table 6): 82.64%; % G2 (MON cells; 5 μM, Table 6): 9.07%; % S (MON cells; 5 μM, Table 6): 8.58%; SubG1 (percentage of MON cells at sub-G1) (MON cells; 5 μM, Table 6): 8.22%; % G1 (MON cells; 10 μM, Table 6): 82.08%; % G2 (MON cells; 10 μM, Table 6): 8.18%; % S (MON cells; 10 μM, Table 6): 8.51%; SubG1 (percentage of MON cells at sub-G1) (MON cells; 10 μM, Table 6): 9.27%; IC50 [3]: > 15 µM; Repression of Cyclin D1 (Cyclin D1): No; down modulation of Cyclin D1 (in words) (Cyclin D1; rhabdoid tumor cells): unable to down modulate Cyclin D1
CC1=C(/C=C/C(C)=C/C=C/C(C)=C/C(=O)Nc2ccc(O)c(Cl)c2)C(C)(C)CCC1 [5(i), (2E,4E,6E,8E)-[3,7-Dimethyl-9-(2,6,6-trimethyl-1-cyclohexenyl)-nona-2,4,6,8-tetraenoylamino]-(3-chloro, 4-hydroxy)phenylamide]									12.5	10	10		IC50 [3]: 1.5 µM; Repression of Cyclin D1 (Cyclin D1): Yes
CC1=C(/C=C/C(C)=C/C=C/C(C)=C/C(=O)Nc2ccc(O)c(I)c2)C(C)(C)CCC1 [5(j), (2E,4E,6E,8E)-[3,7-Dimethyl-9-(2,6,6-trimethyl-1-cyclohexenyl)-nona-2,4,6,8-tetraenoylamino]-(3-Iodo, 4-hydroxy)phenylamide]	86.11	7.83	6.06	26.48	87.97	6.87	5.16	34.21	3	~3	3	more active when compared to parent Fenretinide	IC50 [3]: 0.8 µM; Repression of Cyclin D1 (Cyclin D1): Yes
(2E,4E,6E,8E)-[3,7-Dimethyl-9-(2,6,6-trimethyl-1-cyclohexenyl)-nona-2,4,6-tetraenoylamino]-(4-alcohol)phenylamide [5(l)]												lack of activity	IC50 [2, 7]: 25 µM
CC1=C(/C=C/C(C)=C/C=C/C(C)=C/C(=O)Nc2ccc(O)cc2O)C(C)(C)CCC1 [5(n), (2E,4E,6E,8E)-[3,7-Dimethyl-9-(2,6,6-trimethyl-1-cyclohexenyl)-nona-2,4,6,8-tetraenoylamino]-(2,4-dihydroxy)phenylamide]	85.42	8.48	6.11	25.81	88.30	6.05	5.65	43.53	8	8	8	retains 4-HPR activity	
(2E,4E,6E,8E)-[3,7-Dimethyl-9-(2,6,6-trimethyl-1-cyclohexenyl)-nona-2,4,6,8-tetraenoylamino]-(3-nitro, 4-hydroxy)phenylamide [5(k)]													behaviour in cell culture medium (precipitation / insolubility) [1]: insoluble in cell culture medium
